Data reported in patent US20130101580A1, “COMPOSITIONS AND METHODS FOR PROLONGING LIFESPAN” (priority 2011, published 2013).
Marks after values point to notes of the source that are not given here.

What was measured:
[1] = test system: Drosophila melanogaster (Oregon); assay: Life span of wild type Oregon-R flies with aMT or 5MT added to the nutrition medium; type: in vivo
[2] = test system: Drosophila melanogaster (Oregon); assay: as above; type: in vivo; settings: for Life span (days), Maximum / Life span (days), Mean / Life span (days), Median: aMT (18.3 mM) and 5MT (18.3 mM) in medium; for Increase of maximum life span / Increase of mean survival time: vs control
Protocol: Wild type Oregon-R flies were maintained at 23° C. on a standard Drosophila medium consisting of sugar, yeast, agar and semolina. Two concentrations of aMT (alpha-dl-methyl tryptophan) (0.46 mM or 18.3 mM) or 5MT (5-methyl-dl-tryptophan) (2.4 mM and 18.mM) (Sigma Aldrich Chemical Co, USA) were added to nutrition medium of experimental groups. To examine lifespan, 1-day old adult flies were collected and then regularly transferred to fresh medium every 3-4 days. The number of dead flies was recorded at the time of transfer.
The data were analyzed using two ways ANOVA and Log rank test.

Compound	Effect on life span of Drosophila ([1]; 5MT 2.3 mM in medium)	Increase of mean survival time ([1]; female flies, 5MT 34.5 mM, vs control, p<0.0001, two way ANOVA) [%]	Longest survival of treated female flies ([1]; female flies, high concentrations of 5MT (34.5 mM))	Life span (days), Maximum ([2]; FEMALE flies)	Life span (days), Mean ([2]; FEMALE flies)	Life span (days), Median ([2]; FEMALE flies) [days]	Life span (days), Maximum ([2]; MALE flies) [days]	Life span (days), Mean ([2]; MALE flies)	Life span (days), Median ([2]; MALE flies)	Increase of maximum life span ([2]; female flies, 5MT 34.5 mM, p<0.0001, two way ANOVA) [%]	Female flies surviving longer than 53 days (maximum life span of female control group) ([2]; female flies, high concentrations of 5MT (34.5 mM), 11 out of 58) [%]	Effect on life span of Drosophila ([2]; aMT 0.46 mM in medium)	Increase of maximum life span ([2]; female flies, aMT 18.3 mM, p<0.0001) [%]	Female flies surviving longer than 53 days (maximum life span of female control group) ([2]; female flies, high concentration of aMT (18.3 mM), 13 out of 51) [%]	Increase of mean survival time ([2]; females, aMT 18.3 mM, p<0.0001, two way ANOVA) [%]	Increase of maximum life span ([2]; male flies, aMT 18.3 mM, p<0.0001) [%]	Effect on life span of male flies ([2]; male flies, high concentration (18.3 mM))	Male flies surviving longer than 40 days (maximum life span of 72 out of 73 control flies) ([2]; male flies, high concentration of aMT (18.3 mM), 29 out of 40) [%]	Increase of mean survival time ([2]; males, aMT 18.3 mM, p<0.0001, two way ANOVA) [%]
Cc1ccc2[nH]cc(CC(N)C(=O)O)c2c1 (racemic) [5MT, 5-methyl-dl-tryptophan]	did not affect	21	up to 65 days	65* days	48.5* days	50	40	26.7 days	30 days	23	19	–	–	–	–	–	–	–	–
C[C@](N)(Cc1c[nH]c2ccccc12)C(=O)O (racemic) [aMT, alpha-dl-methyl tryptophan]	–	–	–	–	51.7* days	50	–	40.2* days	43* days	–	–	did not affect	23	25	27	21	did not affect	60	42
